Series [1] in a line: Body weight measurements, expectorant assay. Type of series: in vivo, mice. As to conditions: 250 mg/kg orally. As to the method:
One-hundred twenty one 6-week male SPF/VAF CrljOri: CD1[ICR] mice (OrientBio, Seungnam, Korea; body weight ranged in 29-32 g upon receipt) were prepared, and seven groups of 10 mice each were selected based on the body weights at 7 days after acclimatization based on the body weights (Average:34.75±1.32 g, ranged in 31.6-37.4 g), as follows. Animals husbandries were conducted as same as antitussive assay. All laboratory animals were treated according to the national regulations of the usage and welfare of laboratory animals, and approved by the Institutional Animal Care and Use Committee in Daegu Haany University (Gyeongsan, Gyeongbuk, Korea) [DHU2016-035, Apr. 22, 2016; ANNEX IV].
AR, KOG and SKOG were orally administered as same as antitussive assay, once a day for 11 days before phenol red treatment. In addition, AM was also dissolved in distilled water as 25 mg/ml concentrations, and orally administered in a volume of 10 ml/kg (as equivalence to 250 mg/kg), once a day for 11 days before phenol red treatment. In intact vehicle control mice, distilled water 10 ml/kg was orally administered, instead of AR, KOG, SKOG or AM to provide same restrain stresses, in the present experiment.
Changes of body weights and gains were measured as same methods described in Example 3.

For series [2], the system named is mice. The experiment in a line: Expectorant assay: mucous secretions by phenol red (TLF OD, body surface redness). The following applies: 250 mg/kg orally, 11 days. The format is in vivo. As to the method:
One-hundred twenty one 6-week male SPF/VAF CrljOri: […] Animals husbandries were conducted as same as antitussive assay. All laboratory animals were treated according to the national regulations of the usage and welfare of laboratory animals, and approved by the Institutional Animal Care and Use Committee in Daegu Haany University (Gyeongsan, Gyeongbuk, Korea) [[…] and SKOG were orally administered as same as antitussive assay, once a day for 11 days before phenol red treatment. In addition, AM was also dissolved in distilled water as 25 mg/ml concentrations, and orally administered in a volume of 10 ml/kg (as equivalence to 250 mg/kg), once a day for 11 days before phenol red treatment. In intact vehicle control mice, distilled water 10 ml/kg was orally administered, instead of AR, KOG, SKOG or AM to provide same restrain stresses, in the present experiment. Mucous secretions were measured by single intraperitoneal injection of 5% phenol red (Junsei Chemical Co. […] After ultrasonic for 15 min using ultrasonicator (Model 5210, Branson Ultrasonics, Danbury, Conn., USA), 1 ml NaHCO3 solution (5%, w/v) add to the normal saline, and optical density of these prepared trachea lavage fluid (TLF) were measured at 546 nm using a microplate reader (Model Sunrise, Tecan, Männedorf, Switzerland) as described previously with some modifications.

The test system of series [3] is mice. As to the kind of experiment: Expectorant assay: secondary bronchus histopathology. The format is in vivo. As to conditions: 250 mg/kg orally, 11 days; compared with intact vehicle control. Here is the method: AR, KOG and SKOG were orally administered as same as antitussive assay, once a day for 11 days before phenol red treatment. In addition, AM was also dissolved in distilled water as 25 mg/ml concentrations, and orally administered in a volume of 10 ml/kg (as equivalence to 250 mg/kg), once a day for 11 days before phenol red treatment. In intact vehicle control mice, distilled water 10 ml/kg was orally administered, instead of AR, KOG, SKOG or AM to provide same restrain stresses, in the present experiment. Simultaneously, some parts of individual lung (left lateral lobes) were sampled at trachea excisions, and fixed in 10% NBF, and crossly trimmed. Then embedded in paraffin, sectioned (3˜4 μm) and stained with H&E for general histopathology or PAS (periodic acid schiff) for mucous producing cells, and after that the histopathological profiles of each sample were observed under light microscope. […] The histopathologist was blinds to group distribution when this analysis was made, and at least five repeated measurements in same histological specimens prepared were considered to calculate each mean histomorphometrical value, whenever possible, in this histopathological evaluation.

The nature of series [4]: Body weight measurements, anti-inflammatory assay. The format is in vivo, mice. The following applies: 1 mg/kg orally. As to the method:
(§1) One-hundred thirty two 6-week male SPF/VAF CrljOri:CD1 [ICR] mice (OrientBio, Seungnam, Korea; body weight ranged in 29-32 g upon receipt) were prepared, and eight groups of 10 mice each were selected based on the body weights at 7 days after acclimatization based on the body weights (intact control: 33.88±1.11 g, ranged in 31.8˜35.4 g; Xylene treated mice: 33.85±1.32 g, ranged in 31.1-36.6 g), as follows. Animals husbandries were conducted as same as antitussive and expectorant assays. All laboratory animals were treated according to the national regulations of the usage and welfare of laboratory animals, and approved by the Institutional Animal Care and Use Committee in Daegu Haany University (Gyeongsan, Gyeongbuk, Korea) [DHU2016-036, Apr. 22, 2016; ANNEX V].
AR, KOG and SKOG were orally administered as same as antitussive and expectorant assays, once a day for 11 days before xylene topical applications. In addition, DEXA-water soluble granules were dissolved indistilled water as 1.5 mg/ml concentrations (0.1 mg/ml based on DEXA itself), and also orally administered in a volume of 10 ml/kg (as equivalence to 1 mg/kg based on DEXA itself), once a day for 11 days before xylene topical applications. In intact vehicle and xylene control mice, distilled water 10 ml/kg was orally administered, instead of AR, KOG, SKOG or DEXA to provide same restrain stresses, in the present experiment.
Changes of body weights and gains were measured as same methods described in Example 3 and 4.

For series [5], the system named is xylene topically applied mice. As to the kind of experiment: Anti-inflammatory assay: xylene-induced ear inflammation, ear weight and gross signs. The format is in vivo. As to conditions: 1 mg/kg orally, 11 days; compared with xylene control mice. Here is the method:
as §1
AR, KOG and SKOG were orally administered as same as antitussive and expectorant assays, once a day for 11 days before xylene topical applications. […]
Two hours after topical application of xylene, circular sections of induced ear were taken using a cork borer with a 7-mm diameter and weighed as absolute wet-weights, and then the relative weights (% of bodyweights) of the ears were calculated to reduce the differences from individual body weights, as follow Equation [2], in the current experiment. […]

Series [6] concerns xylene topically applied mice. The experiment in a line: Anti-inflammatory assay: ear histopathology. The format is in vivo. As to conditions: 1 mg/kg orally, 11 days; compared with xylene control mice.
Protocol: Acute inflammations were induced by single topical application of 0.03 ml of xylene (Duksan Pure Chemical Co. Ltd., Ansan, Korea) to the anterior surface of the right ear at 1 hour after last 11th test substance administration, as described previously with some modifications. Equal volume of saline was topically applied in intact vehicle mouse ears, instead of xylene, in our experiment.
After ear weight measurement, individual ear samples were fixed in 10% NBF, and crossly trimmed. Then embedded in paraffin, sectioned (3˜4 μm) and stained with Hematoxylin and eosin (H&E) for general histopathology or toluidine blue for mast cells, and after that the histopathological profiles of each sample were observed under light microscope. To more detail changes, mean total, epidermis and dermis thicknesses of the ear anterior surface, numbers of infiltrated inflammatory cells and mast cells on the dermis of ear (cells/mm^2), collagen occupied region percentages on the dermis (%/mm2) were analyzed using a computer assisted image analysis program, according to previously established methods, respectively. The histopathologist was blinds to group distribution when this analysis was made, and at least five repeated measurements in same histological specimens prepared were considered to calculate each mean histomorphometrical value, whenever possible, in this histopathological evaluation.
The mark [7] stands for this setting: compared with intact vehicle control.
Where [8] appears, read: 11 days, xylene topically applied mice.

`Nc1c(Br)cc(Br)cc1CN[C@H]1CC[C@H](O)CC1` [AM, ambroxol]: in series [1] (11 days, expectorant assay), the “Body weight gains (g) [B − A]” value was 1.99 ± 0.73 g, the “Body weights (g) at test material administration First [A]” value came to 29.23 ± 1.16 g and the “Body weights (g) at test material administration Last [B]” value was 31.22 ± 1.65 g. The “body weight gains during 11 days, change” value in series [1] (setting [7]) worked out at 6.42%. Further, the “body redness (body surface gross findings)” value with mice [2] (30 min after intraperitoneal injection of phenol red, vs intact control) is recorded as “dramatic increases of body redness”. Moreover, the “TLF OD values, change” value with mice [2] (setting [7]) was determined as 33.95%. Moreover, in the series with mice [3], the “Mean numbers of secondary bronchus epithelial PAS positive mucous producing cells, change” value is recorded as 231.58% and the “Mean thicknesses of secondary bronchus mucosa, change” value came out at 41.69%.
For the compound `C[C@@H]1C[C@H]2[C@@H]3CCC4=CC(=O)C=C[C@]4(C)[C@@]3(F)[C@@H](O)C[C@]2(C)[C@@]1(O)C(=O)CO` [DEXA, dexamethasone], the “body weight gains during 11 days, change” value in series [4] (11 days, compared with xylene control mice) is given as −145.10%. In addition, in series [4] (setting [8]), the “Body weight gains (g) [B − A]” value was −0.92 ± 0.76^ab g, the “Body weights (g) at test material administration First [A]” value is 28.72 ± 1.10 g and the “Body weights (g) at test material administration Last [B]” value is reported as 27.80 ± 1.66^ab g. The “body weights during administration period” value in series [4] (from 2 days after initial administration, compared with intact vehicle and xylene control mice) is on record as “significant (p<0.01 or p<0.05) decreases of body weights”. In addition, in series [5], the “absolute ear weights, change” value is reported as −48.52% and the “relative ear weights, change” value is recorded as −42.61%. In series [6], the “Mean ear dermis thicknesses, change” value is −60.02%; the “Mean ear epidermis thicknesses, change” value is reported as −6.35%; the “Mean numbers of infiltrated inflammatory cells on the ear dermis, change” value was −93.13%; the “Mean numbers of infiltrated mast cells on the ear dermis, change” value came to 647.56%. Also, in series [6], the “Mean percentages of collagen occupied regions on the ear dermis, change” value came out at 189.63% and the “Mean total ear thicknesses, change” value was −62.39%.

These data come from patent US11129861B2, “Methods for treating inflammatory diseases” (OKCHUNDANG CO., LTD., priority 2017, dated 2021).
